# Experimental data as given in ChEMBL document CHEMBL3045545, “Control of chickpea blight disease caused by Didymella rabiei by mixing resistance inducer and contact fungicide” (2011).
# Active and inactive are the calls of the source. The calls are words filed in the database; no cut-off is given here.
# Assays:
# Ascochyta rabiei [1] = test: Antifungal activity against Didymella rabiei isolate ARL1 inoculated in chickpea seedlings assessed as reduction in chickpea blight disease at 100 ppm compound treated 24 hr prior seedlings by green house experiment; format: functional, organism-based
# Ascochyta rabiei [2] = test: Antifungal activity against Didymella rabiei in chickpea plant assessed as dry grain yield at 50 ppm compound treated by seeds soaking for 24 hr (Control = 0.268 t/ha); format: functional
# Ascochyta rabiei [3] = test: Antifungal activity against Didymella rabiei in chickpea plant assessed as chickpea blight disease severity at 50 ppm compound three sprays 15 intervals (Control = 45.8%); format: functional
# Ascochyta rabiei [4] = test: Antifungal activity against Didymella rabiei in chickpea plant assessed as dry grain yield at 50 ppm compound three sprays 15 intervals (Control = 0.268 t/ha); format: functional
# Ascochyta rabiei [5] = test: Antifungal activity against Didymella rabiei inoculated in chickpea plant assessed as reduction in chickpea blight disease at 100 ppm compound single spray 24 to 72 hr before inoculation by green house experiment; format: functional, organism-based
# Ascochyta rabiei [6] = test: Antifungal activity against Didymella rabiei in chickpea plant assessed as dry grain yield at 50 ppm compound single spray 15 intervals (Control = 0.268 t/ha); format: functional
# Ascochyta rabiei [7] = test: Antifungal activity against Didymella rabiei in chickpea plant assessed as chickpea blight disease severity at 50 ppm compound single spray 15 intervals (Control = 45.8%); format: functional
# Ascochyta rabiei [8] = test: Antifungal activity against Didymella rabiei in chickpea plant assessed as chickpea blight disease severity at 50 ppm compound treated by seeds soaking for 24 hr (Control = 45.8%); format: functional
# Ascochyta rabiei [9] = test: Antifungal activity against Didymella rabiei in chickpea plant assessed as dry grain yield at 50 ppm compound two sprays 15 intervals (Control = 0.268 t/ha); format: functional
# Ascochyta rabiei [10] = test: Antifungal activity against Didymella rabiei inoculated in chickpea plant assessed as reduction in chickpea blight disease at 100 ppm compound single spray 24 hr before inoculation by green house experiment; format: functional
# Ascochyta rabiei [11] = test: Antifungal activity against Didymella rabiei in chickpea plant assessed as chickpea blight disease severity at 50 ppm compound two sprays 15 intervals (Control = 45.8%); format: functional
# Ascochyta rabiei [12] = test: Antifungal activity against Didymella rabiei inoculated in chickpea plant assessed as reduction in chickpea blight disease at 100 ppm compound single spray 96 or 120 hr before inoculation by green house experiment; format: functional, organism-based
smiles,measurement,setting,value
CSC(=O)c1cccc2nnsc12 [ACIBENZOLAR-S-METHYL],inhibition,Ascochyta rabiei [1],Active
same,Crop_yield,Ascochyta rabiei [2],0.456 tons/ha
same,Activity,Ascochyta rabiei [3],4.2%
same,Crop_yield,Ascochyta rabiei [4],0.922 tons/ha
same,inhibition,Ascochyta rabiei [5],Active
same,Crop_yield,Ascochyta rabiei [6],0.52 tons/ha
same,Activity,Ascochyta rabiei [7],17.5%
same,Activity,Ascochyta rabiei [8],22.5%
same,Crop_yield,Ascochyta rabiei [9],1.066 tons/ha
same,inhibition at 100 ppm,Ascochyta rabiei [10],72.4%
same,Activity,Ascochyta rabiei [11],7.5%
same,inhibition,Ascochyta rabiei [12],inactive
